Data as given in ChEMBL document CHEMBL5335843, “Application of tobramycin benzyl ether as an antibiotic adjuvant capable of sensitizing multidrug-resistant Gram-negative bacteria to rifampicin” (2024).

Key:
Pseudomonas aeruginosa [1] = assay: Antibiotic adjuvant activity against multi-drug resistant Pseudomonas aeruginosa clinical isolate PA114228 assessed as fractional inhibitory concentration index incubated for 18 hrs in presence of minocycline by two fold broth microdilution checkerboard assay; type: functional
Escherichia coli [2] = assay: Antibiotic adjuvant activity against multi-drug resistant Escherichia coli clinical isolate 107115 assessed as inhibition of bacterial growth incubated for 18 hrs in presence of Rifampicin by two fold broth microdilution checkerboard assay; type: functional
Cell membrane = assay: Induction of outer membrane permeabilization in Escherichia coli ATCC 25922 assessed as increase fluorescence intensity by measuring NPN uptake factor at 4 to 8 uM by fluorescence based analysis; type: subcellular; settings: dose 4-8 µM, TDE = time-dependent effect
Pseudomonas aeruginosa [3] = assay: Antibiotic adjuvant activity against multi-drug resistant Pseudomonas aeruginosa clinical isolate PA264 assessed as inhibition of bacterial growth incubated for 18 hrs in presence of minocycline by two fold broth microdilution checkerboard assay; type: functional
Escherichia coli [4] = assay: Antibiotic adjuvant activity against multi-drug resistant Escherichia coli clinical isolate 94393 assessed as fractional inhibitory concentration index incubated for 18 hrs in presence of Rifampicin by two fold broth microdilution checkerboard assay; type: functional
Enterococcus faecium [5] = assay: Antibiotic adjuvant activity against Enterococcus faecium 128149 assessed as inhibition of bacterial growth incubated for 18 hrs in presence of rifampicin by two fold broth microdilution checkerboard assay; type: functional
Escherichia coli [6] = assay: Antibiotic adjuvant activity against multi-drug resistant Escherichia coli clinical isolate EC107115 assessed as fractional inhibitory concentration index incubated for 18 hrs in presence of minocycline by two fold broth microdilution checkerboard assay; type: functional
Acinetobacter baumannii [7] = assay: Antibiotic adjuvant activity against Acinetobacter baumannii ATCC 17978 assessed as fold potentiation incubated for 18 hrs in presence of Rifampicin by two fold broth microdilution checkerboard assay; type: functional
Pseudomonas aeruginosa [8] = assay: Antibiotic adjuvant activity against multi-drug resistant Pseudomonas aeruginosa clinical isolate PA264 assessed as minocycline MIC incubated for 18 hrs in presence of minocycline by two fold broth microdilution checkerboard assay; type: functional
Pseudomonas aeruginosa [9] = assay: Antibiotic adjuvant activity against multi-drug resistant Pseudomonas aeruginosa clinical isolate PA101243 assessed as inhibition of bacterial growth incubated for 18 hrs in presence of doxycycline by two fold broth microdilution checkerboard assay; type: functional
Pseudomonas aeruginosa [10] = assay: Antibiotic adjuvant activity against multi-drug resistant Pseudomonas aeruginosa clinical isolate PA262 assessed as rifampicin MIC incubated for 18 hrs in presence of Rifampicin by two fold broth microdilution checkerboard assay; type: functional
Pseudomonas aeruginosa [11] = assay: Antibiotic adjuvant activity against multi-drug resistant Pseudomonas aeruginosa clinical isolate PA101243 assessed as fold potentiation incubated for 18 hrs in presence of doxycycline by two fold broth microdilution checkerboard assay; type: functional
Enterococcus faecium [12] = assay: Antibiotic adjuvant activity against Enterococcus faecium 114278 assessed as fold potentiation incubated for 18 hrs in presence of rifampicin by two fold broth microdilution checkerboard assay; type: functional
Pseudomonas aeruginosa [13] = assay: Antibiotic adjuvant activity against multi-drug resistant Pseudomonas aeruginosa clinical isolate PA259 assessed as inhibition of bacterial growth incubated for 18 hrs in presence of doxycycline by two fold broth microdilution checkerboard assay; type: functional
Escherichia coli [14] = assay: Antibiotic adjuvant activity against multi-drug resistant Escherichia coli clinical isolate 107115 assessed as fractional inhibitory concentration index incubated for 18 hrs in presence of Rifampicin by two fold broth microdilution checkerboard assay; type: functional
Pseudomonas aeruginosa [15] = assay: Antibiotic adjuvant activity against multi-drug resistant Pseudomonas aeruginosa clinical isolate PA259 assessed as inhibition of bacterial growth incubated for 18 hrs in presence of minocycline by two fold broth microdilution checkerboard assay; type: functional
Acinetobacter baumannii [16] = assay: Antibiotic adjuvant activity against Acinetobacter baumannii ATCC 17978 assessed as fold potentiation at 16 ug/ml incubated for 18 hrs in presence of rifampicin and 25 % FBS media by two fold broth microdilution checkerboard assay; type: functional; settings: dose 16 µg/ml
Pseudomonas aeruginosa [17] = assay: Antibiotic adjuvant activity against multi-drug resistant Pseudomonas aeruginosa clinical isolate PA259 assessed as inhibition of bacterial growth incubated for 18 hrs in presence of Rifampicin by two fold broth microdilution checkerboard assay; type: functional
Acinetobacter baumannii [18] = assay: Antibacterial activity against multi-drug resistant Acinetobacter baumannii clinical isolate LAC-4 assessed as inhibition of bacterial growth incubated for 18 hrs by two fold broth microdilution assay; type: functional
Escherichia coli [19] = assay: Antibiotic adjuvant activity against multi-drug resistant Escherichia coli clinical isolate EC107115 assessed as minocycline MIC incubated for 18 hrs in presence of minocycline by two fold broth microdilution checkerboard assay; type: functional
Pseudomonas aeruginosa [20] = assay: Antibiotic adjuvant activity against multi-drug resistant Pseudomonas aeruginosa clinical isolate PA262 assessed as inhibition of bacterial growth incubated for 18 hrs in presence of minocycline by two fold broth microdilution checkerboard assay; type: functional
Pseudomonas aeruginosa [21] = assay: Antibacterial activity against multi-drug resistant Pseudomonas aeruginosa clinical isolate PA114228 assessed as inhibition of bacterial growth incubated for 18 hrs by two fold broth microdilution assay; type: functional
Pseudomonas aeruginosa [22] = assay: Antibiotic adjuvant activity against multi-drug resistant Pseudomonas aeruginosa clinical isolate 101243 assessed as fractional inhibitory concentration index incubated for 18 hrs in presence of Rifampicin by two fold broth microdilution checkerboard assay; type: functional
Acinetobacter baumannii [23] = assay: Antibiotic adjuvant activity against multi-drug resistant Acinetobacter baumannii clinical isolate 92247 assessed as fold potentiation incubated for 18 hrs in presence of Rifampicin by two fold broth microdilution checkerboard assay; type: functional
Escherichia coli [24] = assay: Antibacterial activity against multi-drug resistant Escherichia coli clinical isolate EC107115 assessed as inhibition of bacterial growth incubated for 18 hrs by two fold broth microdilution assay; type: functional
Enterococcus faecium [25] = assay: Antibiotic adjuvant activity against Enterococcus faecium 128149 assessed as fractional inhibitory concentration index incubated for 18 hrs in presence of rifampicin by two fold broth microdilution checkerboard assay; type: functional
Escherichia coli [26] = assay: Antibiotic adjuvant activity against Escherichia coli ATCC 25922 assessed as novobiocin MIC incubated for 18 hrs in presence of novobiocin by two fold broth microdilution checkerboard assay; type: functional
Enterococcus faecium [27] = assay: Antibiotic adjuvant activity against Enterococcus faecium 128149 assessed as rifampicin MIC incubated for 18 hrs in presence of rifampicin by two fold broth microdilution checkerboard assay; type: functional
Escherichia coli [28] = assay: Antibiotic adjuvant activity against multi-drug resistant Escherichia coli clinical isolate 94474 assessed as fold potentiation incubated for 18 hrs in presence of Rifampicin by two fold broth microdilution checkerboard assay; type: functional
Escherichia coli [29] = assay: Antibacterial activity against multi-drug resistant Escherichia coli clinical isolate 94393 assessed as inhibition of bacterial growth incubated for 18 hrs by two fold broth microdilution assay; type: functional
Enterobacterales = assay: Antibiotic adjuvant activity against Enterobacterales assessed as minocycline MIC incubated for 18 hrs in presence of minocycline by two fold broth microdilution checkerboard assay; type: functional
Pseudomonas aeruginosa [30] = assay: Antibiotic adjuvant activity against multi-drug resistant Pseudomonas aeruginosa clinical isolate PA259 assessed as fractional inhibitory concentration index incubated for 18 hrs in presence of Rifampicin by two fold broth microdilution checkerboard assay; type: functional
Acinetobacter baumannii [31] = assay: Antibiotic adjuvant activity against multi-drug resistant Acinetobacter baumannii clinical isolate 92247 assessed as rifampicin MIC incubated for 18 hrs in presence of Rifampicin by two fold broth microdilution checkerboard assay; type: functional
Escherichia coli [32] = assay: Antibiotic adjuvant activity against multi-drug resistant Escherichia coli clinical isolate EC107115 assessed as inhibition of bacterial growth incubated for 18 hrs in presence of doxycycline by two fold broth microdilution checkerboard assay; type: functional
Staphylococcus aureus = assay: Antibiotic adjuvant activity against methicilin-resistant Staphylococcus aureus assessed as fold potentiation incubated for 18 hrs in presence of rifampicin by two fold broth microdilution checkerboard assay; type: functional

Question: With `Cl.NC[C@H]1O[C@H](O[C@H]2[C@H](OCc3ccccc3)[C@@H](O[C@H]3O[C@H](COCc4ccccc4)[C@@H](OCc4ccccc4)[C@H](N)[C@H]3OCc3ccccc3)[C@H](N)C[C@@H]2N)[C@H](N)C[C@@H]1OCc1ccccc1` as the compound, how does the “fractional inhibitory concentration index (FICI)” value (Pseudomonas aeruginosa [1]) read?
Answer: 1.063

Question: What about the MIC (Escherichia coli [2]) of the same compound?
Answer: 2 µg/mL

Question: And the Activity (Cell membrane)?
Answer: Tde

Question: What about the MIC (Pseudomonas aeruginosa [3]) of the same compound?
Answer: 8 µg/mL

Question: And the “fractional inhibitory concentration index (FICI)” value (Escherichia coli [4])?
Answer: 1.25

Question: And the MIC (Enterococcus faecium [5])?
Answer: 8 µg/mL

Question: And the “fractional inhibitory concentration index (FICI)” value (Escherichia coli [6])?
Answer: 0.078

Question: What about the “fold change (FC)” value (Acinetobacter baumannii [7]) of the same compound?
Answer: 8

Question: What about the MIC (Pseudomonas aeruginosa [8]) of the same compound?
Answer: 16 µg/mL

Question: What about the MIC (Pseudomonas aeruginosa [9]) of the same compound?
Answer: 8 µg/mL

Question: And the MIC (Pseudomonas aeruginosa [10])?
Answer: 512 µg/mL

Question: And the “fold change (FC)” value (Pseudomonas aeruginosa [11])?
Answer: 1

Question: And the “fold change (FC)” value (Enterococcus faecium [12])?
Answer: 1

Question: And the MIC (Pseudomonas aeruginosa [13])?
Answer: 8 µg/mL

Question: What about the “fractional inhibitory concentration index (FICI)” value (Escherichia coli [14]) of the same compound?
Answer: 0.063

Question: What about the MIC (Pseudomonas aeruginosa [15]) of the same compound?
Answer: 8 µg/mL

Question: And the “fold change (FC)” value (Acinetobacter baumannii [16])?
Answer: 32

Question: What about the MIC (Pseudomonas aeruginosa [17]) of the same compound?
Answer: 8 µg/mL

Question: What about the MIC (Acinetobacter baumannii [18]) of the same compound?
Answer: 16 µg/mL

Question: And the MIC (Escherichia coli [19])?
Answer: 1 µg/mL

Question: What about the MIC (Pseudomonas aeruginosa [20]) of the same compound?
Answer: 8 µg/mL

Question: What about the MIC (Pseudomonas aeruginosa [21]) of the same compound?
Answer: 64 µg/mL

Question: What about the “fractional inhibitory concentration index (FICI)” value (Pseudomonas aeruginosa [22]) of the same compound?
Answer: 0.126

Question: What about the “fold change (FC)” value (Acinetobacter baumannii [23]) of the same compound?
Answer: 512

Question: What about the MIC (Escherichia coli [24]) of the same compound?
Answer: 32 µg/mL

Question: What about the “fractional inhibitory concentration index (FICI)” value (Enterococcus faecium [25]) of the same compound?
Answer: 1.5

Question: What about the MIC (Escherichia coli [26]) of the same compound?
Answer: 0.125 µg/mL

Question: What about the MIC (Enterococcus faecium [27]) of the same compound?
Answer: 8 µg/mL

Question: What about the “fold change (FC)” value (Escherichia coli [28]) of the same compound?
Answer: 256

Question: What about the MIC (Escherichia coli [29]) of the same compound?
Answer: 32 µg/mL

Question: What about the MIC (Enterobacterales) of the same compound?
Answer: ≤ 4 µg/mL

Question: What about the “fractional inhibitory concentration index (FICI)” value (Pseudomonas aeruginosa [30]) of the same compound?
Answer: 1.063

Question: What about the MIC (Acinetobacter baumannii [31]) of the same compound?
Answer: 0.008 µg/mL

Question: And the MIC (Escherichia coli [32])?
Answer: 8 µg/mL

Question: And the “fold change (FC)” value (Staphylococcus aureus)?
Answer: 1
